Measurements as given in ChEMBL document CHEMBL1135518 (J Med Chem, 2002).

Assays:
[1] = molecular target: T1, Adrenergic receptor alpha-1 (Rattus norvegicus, UniProt P15823+P23944+P43140); test: The binding affinity at Alpha-1 adrenergic receptor determined using [3H]prazosin; type: protein assay
T1 sequence (P15823 whole entry): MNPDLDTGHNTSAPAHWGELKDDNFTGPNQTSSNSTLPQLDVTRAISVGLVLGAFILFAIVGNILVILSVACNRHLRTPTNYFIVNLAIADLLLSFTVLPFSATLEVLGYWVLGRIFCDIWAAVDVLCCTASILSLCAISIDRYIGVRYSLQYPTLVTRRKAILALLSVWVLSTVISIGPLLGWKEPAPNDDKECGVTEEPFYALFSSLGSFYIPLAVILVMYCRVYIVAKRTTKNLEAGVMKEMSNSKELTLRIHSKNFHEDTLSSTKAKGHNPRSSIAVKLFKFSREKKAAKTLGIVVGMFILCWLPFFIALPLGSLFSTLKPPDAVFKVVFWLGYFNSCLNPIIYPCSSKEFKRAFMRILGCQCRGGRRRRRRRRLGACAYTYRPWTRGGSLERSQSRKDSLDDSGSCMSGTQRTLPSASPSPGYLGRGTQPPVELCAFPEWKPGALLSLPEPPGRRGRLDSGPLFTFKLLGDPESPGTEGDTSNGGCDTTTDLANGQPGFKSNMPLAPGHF
T1 sequence (P23944 whole entry): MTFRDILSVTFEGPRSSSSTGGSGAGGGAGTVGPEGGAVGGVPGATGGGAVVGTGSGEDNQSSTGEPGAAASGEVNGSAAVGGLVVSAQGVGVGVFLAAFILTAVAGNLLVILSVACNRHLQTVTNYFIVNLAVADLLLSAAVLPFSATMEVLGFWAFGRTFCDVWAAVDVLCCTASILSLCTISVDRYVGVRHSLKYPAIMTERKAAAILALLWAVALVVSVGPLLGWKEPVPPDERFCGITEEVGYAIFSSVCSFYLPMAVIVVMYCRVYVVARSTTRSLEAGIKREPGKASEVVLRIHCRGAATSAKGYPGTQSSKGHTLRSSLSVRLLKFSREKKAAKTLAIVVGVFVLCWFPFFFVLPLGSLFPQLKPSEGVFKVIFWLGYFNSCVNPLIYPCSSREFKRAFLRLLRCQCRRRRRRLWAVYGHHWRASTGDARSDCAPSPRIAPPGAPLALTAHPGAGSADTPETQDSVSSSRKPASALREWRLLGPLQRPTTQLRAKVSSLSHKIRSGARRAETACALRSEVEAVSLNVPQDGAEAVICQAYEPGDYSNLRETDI
T1 sequence (P43140 whole entry): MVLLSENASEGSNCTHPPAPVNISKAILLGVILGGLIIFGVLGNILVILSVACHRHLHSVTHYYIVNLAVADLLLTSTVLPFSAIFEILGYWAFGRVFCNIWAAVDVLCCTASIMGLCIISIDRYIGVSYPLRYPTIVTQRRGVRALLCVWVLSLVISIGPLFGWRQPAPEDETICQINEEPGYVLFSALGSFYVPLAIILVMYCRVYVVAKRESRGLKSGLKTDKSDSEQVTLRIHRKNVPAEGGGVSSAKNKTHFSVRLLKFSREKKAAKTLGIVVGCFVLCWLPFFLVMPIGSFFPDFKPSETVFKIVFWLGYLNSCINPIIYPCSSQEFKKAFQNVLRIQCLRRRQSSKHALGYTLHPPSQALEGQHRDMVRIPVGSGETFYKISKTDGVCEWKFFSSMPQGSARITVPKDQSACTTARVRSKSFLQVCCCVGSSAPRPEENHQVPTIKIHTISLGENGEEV

D(4) dopamine receptor = molecular target: T2, D(4) dopamine receptor (Homo sapiens, UniProt P21917); test: The binding affinity at the Dopamine receptor D4 determined using [3H]YM-09151-2
T2 sequence (P21917 whole entry): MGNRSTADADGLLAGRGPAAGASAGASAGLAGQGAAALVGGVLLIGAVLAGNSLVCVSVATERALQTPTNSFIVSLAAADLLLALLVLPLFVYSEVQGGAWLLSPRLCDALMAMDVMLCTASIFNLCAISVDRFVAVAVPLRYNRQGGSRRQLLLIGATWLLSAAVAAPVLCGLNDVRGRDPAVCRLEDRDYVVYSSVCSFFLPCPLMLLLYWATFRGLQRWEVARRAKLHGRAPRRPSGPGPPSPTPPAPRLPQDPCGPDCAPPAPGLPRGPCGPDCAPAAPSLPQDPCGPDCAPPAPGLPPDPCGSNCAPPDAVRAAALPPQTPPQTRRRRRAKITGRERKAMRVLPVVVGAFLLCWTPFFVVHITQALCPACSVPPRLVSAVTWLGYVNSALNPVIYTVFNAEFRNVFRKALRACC

Rattus norvegicus = test: The increase in the extracellular levels of 5-HIAA in the rat ventral hippocampus at a dose of 2.5 mg/kg sc measured by in vivo microdialysis; type: functional; conditions: route subcutaneous

COc1cccc2c1N1CCN(C)C[C@@H]1c1ccccc1C2
Ki [1]: 205 nM | Ki (D(4) dopamine receptor): 160 nM | Increase (Rattus norvegicus): 120%

COc1cccc2c1N1CCN(C)C[C@H]1c1ccccc1C2
Ki [1]: 74 nM | Ki (D(4) dopamine receptor): 47 nM | Increase (Rattus norvegicus): 120%

COc1cccc2c1N1CCN(C)CC1c1ccccc1C2 (racemic)
Ki [1]: 84 nM | Ki (D(4) dopamine receptor): 92 nM
